For 24 compounds, IC50 results are on record in patent US20240092784A1, “CONDENSED HETEROCYCLIC COMPOUND” (NISSAN CHEMICAL CORPORATION, priority 2020, published 2024).

Where a name gives a salt, the structure may show the parent alone. Read-outs that look alike come from different tables or passages of the source.

In this test the target is human SPR (Homo sapiens (Human), UniProt P35270). Description: Evaluation Example 2: Measurement of human SPR inhibitory activity (seven concentrations, sepiapterin absorbance at 420 nm). Type of test: biochemical. The method, boiled down: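 His-tagged full-length human SPR (1-261) was expressed in E. coli and the tag removed. Enzyme at 150 ng/mL in 100 mM Tris-HCl pH 7.5/0.01% BSA was mixed with compound (0.14–100 nM, seven points), 120 μM sepiapterin and 160 μM NADPH, both as added-solution concentrations. After 240 min at room temperature, remaining sepiapterin was read at 420 nm to give percent inhibition.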

Setting [1] is: Evaluation Example 2, seven concentrations 0.14 nM to 100 nM, 240 minutes at room temperature, read-out: IC50.

human SPR, sequence (P35270 whole entry): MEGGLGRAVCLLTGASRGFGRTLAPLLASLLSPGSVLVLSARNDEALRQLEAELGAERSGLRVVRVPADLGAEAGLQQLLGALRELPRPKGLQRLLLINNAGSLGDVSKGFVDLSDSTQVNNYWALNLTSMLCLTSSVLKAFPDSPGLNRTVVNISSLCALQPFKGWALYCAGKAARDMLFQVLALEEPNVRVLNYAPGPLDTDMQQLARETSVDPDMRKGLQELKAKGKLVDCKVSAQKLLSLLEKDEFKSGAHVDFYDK

With `CC(C)Cn1c(=O)c(C(=O)NC2CC2)c(O)n2ncc(CNC(=O)C3CCOCC3)c12` [Synthesis Example 262, N-Cyclopropyl-7-hydroxy-4-isobutyl-5-oxo-3-((tetrahydro-2H-pyran-4-carboxamido)methyl)-4,5-dihydropyrazolo[1,5-a]pyrimidine-6-carboxamide], under setting [1], the IC50 was 1.01 nM.

For the compound `CC(C)Cn1c(=O)c(C(=O)NC2CC2)c(O)n2ncc(C(=O)NCc3ccc(C(F)(F)F)nc3)c12` [Synthesis Example 226, N6-Cyclopropyl-7-hydroxy-4-isobutyl-5-oxo-N3-((6-(trifluoromethyl)pyridin-3-yl)methyl)-4,5-dihydropyrazolo[1,5-a]pyrimidine-3,6-dicarboxamide], under setting [1], the IC50 was 1.07 nM.

Consider `Cc1nn2c(O)c(C(=O)NC3CC3)c(=O)n(CC(C)C)c2c1/C=C/C(=O)N1CCN(CC2CC(F)(F)C2)C[C@H]1C` [Synthesis Example 704, (R,E)-N-Cyclopropyl-3-(3-(4-((3,3-difluorocyclobutyl)methyl)-2-methylpiperazin-1-yl)-3-oxoprop-1-en-1-yl)-7-hydroxy-4-isobutyl-2-methyl-5-oxo-4,5-dihydropyrazolo[1,5-a]pyrimidine-6-carboxamide], for which, for the setting “sepiapterin absorbance, Table 41, read-out: concentration at 50% inhibition of human SPR (IC50)”, the IC50 turned out to be 1.52 nM.

For `CC(C)Cn1c(=O)c(C(=O)NC2CC2)c(O)n2ncc(/C=C/C(=O)N3CCOCC34CCC4)c12` [compound 547, (E)-N-Cyclopropyl-7-hydroxy-4-isobutyl-5-oxo-3-(3-oxo-3-(8-oxa-5-azaspiro[3,5]nonan-5-yl)prop-1-en-1-yl)-4,5-dihydropyrazolo[1,5-a]pyrimidine-6-carboxamide], the IC50 under setting [1] came out at 0.74 nM.

For the compound `COC[C@H]1CCCN1C(=O)/C=C/c1c(C)nn2c(O)c(C(=O)NC3CC3)c(=O)n(CC(C)C)c12` [Synthesis Example 612, (R,E)-N-Cyclopropyl-7-hydroxy-4-isobutyl-3-(3-(2-(methoxymethyl)pyrrolidin-1-yl)-3-oxoprop-1-en-1-yl)-2-methyl-5-oxo-4,5-dihydropyrazolo[1,5-a]pyrimidine-6-carboxamide], under setting [1], the IC50 was found to be 1.23 nM.

Take `Cc1nn2c(O)c(C(=O)NC3CC3)c(=O)n(CC(C)C)c2c1/C=C/C(=O)N1CCC(F)(F)CC1` [compound 579, (E)-N-Cyclopropyl-3-(3-(4,4-difluoropiperidin-1-yl)-3-oxoprop-1-en-1-yl)-7-hydroxy-4-isobutyl-2-methyl-5-oxo-4,5-dihydropyrazolo[1,5-a]pyrimidine-6-carboxamide]: the IC50 under setting [1] was determined as 0.87 nM.

With `CC(C)Cn1c(=O)c(C(=O)NC2CC2)c(O)n2ncc(/C=C/C(=O)N3CCC(F)CC3)c12` [compound 463, (E)-N-Cyclopropyl-3-(3-(4-fluoropiperidin-1-yl)-3-oxoprop-1-en-1-yl)-7-hydroxy-4-isobutyl-5-oxo-4,5-dihydropyrazolo[1,5-a]pyrimidine-6-carboxamide], under setting [1], the IC50 was 0.97 nM.

As to `COC[C@@H]1COCCN1C(=O)/C=C/c1cnn2c(O)c(C(=O)NC3CC3)c(=O)n(CC3(C)CC3)c12` [Synthesis Example 372, (R,E)-N-Cyclopropyl-7-hydroxy-3-(3-(3-(methoxymethyl)morpholino)-3-oxoprop-1-en-1-yl)-4-((1-methylcyclopropyl)methyl)-5-oxo-4,5-dihydropyrazolo[1,5-a]pyrimidine-6-carboxamide], under setting [1], the IC50 amounted to 0.55 nM.

With `CC(C)(C)Cn1c(=O)c(C(=O)NC2CC2)c(O)n2nc3[nH]ccc3c12` [Synthesis Example 395, N-Cyclopropyl-7-hydroxy-4-neopentyl-5-oxo-4,5-dihydro-1H-pyrrolo[2′,3′:3,4]pyrazolo[1,5-a]pyrimidine-6-carboxamide], the IC50 under setting [1] worked out at 0.89 nM.

As for `CC(C)(C)Cn1c(=O)c(C(=O)NCC(F)(F)F)c(O)n2nc(Nc3cnccn3)cc12` [Synthesis Example 347, 7-Hydroxy-4-neopentyl-5-oxo-2-(pyrazin-2-ylamino)-N-(2,2,2-trifluoroethyl)-4,5-dihydropyrazolo[1,5-a]pyrimidine-6-carboxamide], the IC50 under setting [1] is 1.87 nM.

In the case of `CC(C)Cn1c(=O)c(C(=O)NC2CC2)c(O)n2ncc(/C=C/C(=O)N3CCC[C@H]3C#N)c12` [compound 495, (S,E)-3-(3-(2-Cyanopyrrolidin-1-yl)-3-oxoprop-1-en-1-yl)-N-cyclopropyl-7-hydroxy-4-isobutyl-5-oxo-4,5-dihydropyrazolo[1,5-a]pyrimidine-6-carboxamide], under setting [1], the IC50 was 0.91 nM.

Consider `Cc1nn2c(O)c(C(=O)NC3CC3)c(=O)n(CC(C)C)c2c1/C=C/C(=O)N1CCC[C@H]1c1ccccc1` [Synthesis Example 674, (S,E)-N-Cyclopropyl-7-hydroxy-4-isobutyl-2-methyl-5-oxo-3-(3-oxo-3-(2-phenylpyrrolidin-1-yl)prop-1-en-1-yl)-4,5-dihydropyrazolo[1,5-a]pyrimidine-6-carboxamide], for which, under setting [1], the IC50 was found to be 1.36 nM.

As to `CC(C)(C)Cn1c(=O)c(C(=O)NC2CC2)c(O)n2nc(-c3cccnc3F)cc12` [Synthesis Example 283, N-Cyclopropyl-2-(2-fluoropyridine-3-yl)-7-hydroxy-4-neopentyl-5-oxo-4,5-dihydropyrazolo[1,5-a]pyrimidine-6-carboxamide], the IC50 under setting [1] turned out to be 2.35 nM.

For `CNc1nn2c(O)c(C(=O)NC3CC3)c(=O)n(CC(C)C)c2c1/C=C/C(=O)N1CCCC1` [Synthesis Example 427, (E)-N-Cyclopropyl-7-hydroxy-4-isobutyl-2-(methylamino)-5-oxo-3-(3-oxo-3-(pyrrolidin-1-yl)prop-1-en-1-yl)-4,5-dihydropyrazolo[1,5-a]pyrimidine-6-carboxamide], under setting [1], the IC50 stood at 0.95 nM.

For `CC[C@H]1CCCN1C(=O)/C=C/c1c(C)nn2c(O)c(C(=O)NC3CC3)c(=O)n(CC(C)C)c12` [Synthesis Example 640, (S,E)-N-Cyclopropyl-3-(3-(2-ethylpyrrolidin-1-yl)-3-oxoprop-1-en-1-yl)-7-hydroxy-4-isobutyl-2-methyl-5-oxo-4,5-dihydropyrazolo[1,5-a]pyrimidine-6-carboxamide], under setting [1], the IC50 came to 1.16 nM.

Turning to `CC(Cn1c(=O)c(C(=O)NC2CC2)c(O)n2ncc(/C=C/C(=O)N3CCOCC3)c12)C(F)(F)F` (single isomer, unassigned) [Synthesis Example 389, (E)-N-Cyclopropyl-7-hydroxy-3-(3-morpholino-3-oxoprop-1-en-1-yl)-5-oxo-4-(3,3,3-trifluoro-2-methylpropyl)-4,5-dihydropyrazolo[1,5-a]pyrimidine-6-carboxamide], the IC50 under setting [1] was 0.95 nM.

On to `COC(=O)Nc1nn2c(O)c(C(=O)NC3CC3)c(=O)n(CC(C)C)c2c1/C=C/C(=O)N1CCOCC1` [Synthesis Example 425, Methyl (E)-(6-(cyclopropylcarbamoyl)-7-hydroxy-4-isobutyl-3-(3-morpholino-3-oxoprop-1-en-1-yl)-5-oxo-4,5-dihydropyrazolo[1,5-a]pyrimidin-2-yl)carbamate], for which the IC50 under setting [1] turned out to be 0.77 nM.

Turning to `CC(C)(C)Cn1c(=O)c(C(=O)NC2CC2)c(O)n2nc3[nH]c(=O)ccc3c12` [Synthesis Example 394, N-Cyclopropyl-4-hydroxy-1-neopentyl-2,8-dioxo-1,2,7,8-tetrahydropyrido[2′,3′:3,4]pyrazolo[1,5-a]pyrimidine-3-carboxamide], the IC50 under setting [1] came to 0.39 nM.

Consider `CC(C)(C)Cn1c(=O)c(C(=O)NC2CC2)c(O)n2nc3c(c12)CN(C1CCOCC1)C(=O)N3` [Synthesis Example 405, N-Cyclopropyl-8-hydroxy-5-neopentyl-2,6-dioxo-3-(tetrahydro-2H-pyran-4-yl)-1,2,3,4,5,6-hexahydropyrazolo[1,5-a:3,4-d′]dipyrimidine-7-carboxamide], for which the IC50 under setting [1] is 0.77 nM.

In the case of `COC[C@@H]1CCN(C(=O)/C=C/c2c(C)nn3c(O)c(C(=O)NC4CC4)c(=O)n(CC(C)C)c23)C1` [Synthesis Example 621, (R,E)-N-Cyclopropyl-7-hydroxy-4-isobutyl-3-(3-(3-(methoxymethyl)pyrrolidin-1-yl)-3-oxoprop-1-en-1-yl)-2-methyl-5-oxo-4,5-dihydropyrazolo[1,5-a]pyrimidine-6-carboxamide], the IC50 under setting [1] is 1.42 nM.

With `CC(C)Cn1c(=O)c(C(=O)NC2CC2)c(O)n2nc(N)c(/C=C/C(=O)N3CCC(F)(F)CC3)c12` [Synthesis Example 414, (E)-2-Amino-N-cyclopropyl-3-(3-(4,4-difluoropiperidin-1-yl)-3-oxoprop-1-en-1-yl)-7-hydroxy-4-isobutyl-5-oxo-4,5-dihydropyrazolo[1,5-a]pyrimidine-6-carboxamide hydrochloride], under setting [1], the IC50 turned out to be 0.7 nM.

Turning to `CCOc1cnc(Nc2cc3n(CC(C)(C)C)c(=O)c(C(=O)NC4CC4)c(O)n3n2)cn1` [Synthesis Example 338, N-Cyclopropyl-2-((5-ethoxypyrazin-2-yl)amino)-7-hydroxy-4-neopentyl-5-oxo-4,5-dihydropyrazolo[1,5-a]pyrimidine-6-carboxamide], the IC50 under setting [1] turned out to be 2.73 nM.

In the case of `CC(C)Cn1c(=O)c(C(=O)NC2CC2)c(O)n2ncc(/C=C/C(=O)N3[C@@H](C)COC[C@@H]3C)c12` [compound 457, N-Cyclopropyl-3-((E)-3-((3S,5S)-3,5-dimethylmorpholino)-3-oxoprop-1-en-1-yl)-7-hydroxy-4-isobutyl-5-oxo-4,5-dihydropyrazolo[1,5-a]pyrimidine-6-carboxamide], the IC50 under setting [1] was determined as 0.81 nM.

Turning to `CC(C)(C)Cn1c(=O)c(C(=O)NC2CC2)c(O)n2nc3c(c12)CCN3CC(F)(F)F` [Synthesis Example 398, N-Cyclopropyl-7-hydroxy-4-neopentyl-5-oxo-1-(2,2,2-trifluoroethyl)-2,3,4,5-tetrahydro-1H-pyrrolo[2′,3′:3,4]pyrazolo[1,5-a]pyrimidine-6-carboxamide], the IC50 under setting [1] was determined as 6.08 nM.
